Reference: patent publication US10487091B2, “Activators of autophagic flux and phospholipase D and clearance of protein aggregates including tau and treatment of proteinopathies” (THE TRUSTEES OF COLUMBIA UNIVERSITY IN THE CITY OF NEW YORK, priority 2015, dated 2019)
Read-outs that look alike come from different tables or passages of the source.

Columns and labels:
Autophagy Markers = assay: Autophagy markers (Cyto-ID assay) in HEK 293 cells; assay type: cell-based, Human
Method: The dye used in the kit prevents its accumulation within lysosomes, but enables labelling of vacuoles associated with the autophagy pathway using the LC3 biomarker.
(§1) The test compounds (along with CytoID™ dye and Hoechst stain) were added to the cells and incubated for 3 hours. Reference compounds were also used in each plate, Rapamycin was used for autophagy induction and chloroquine was used for lysosomal inhibition. After 3 hours test compound was aspirated off and kept. Cells were then washed and read using a fluorescence plate reader. Hoescht, Cyto-ID™ and mKate2 were measured using 3 distinct wavelengths on the plate reader. The Hoescht measurement allowed normalisation of results across wells. After reading, test compound was re-added and the cells are left for a further 21 hours. At the 24 hour time point cells were once again washed and plates read using the fluorescence plate reader.
2) Test samples were prepared in warm FluoroBrite™ DMEM and with 10% FBS and 1% NEAA (FB-DMEM). Rapamycin 200 nM (Enzo #BML-A275-0025) was used for autophagy induction and […] chloroquine was used for lysosomal inhibition (bafilomycin or similar compounds were not used as they give a false negative result in the assay). Dimethyl Sulfoxide 1:1000 (DMSO; Fisher #BP231-100) was used as control. Autophagosome marker Cyto ID™ (1:500; Enzo #ENZ-51031-k200) and Hoechst (1:200) was added to these test sample preparations before treating the cells.
7) At 24 hours post reaction all medium was aspirated and the plate was washed 3 times with warm FB-DMEM, and read again for Hoescht (Ex=355 nm Em=446 nm), CytoID™ (Ex=463 nm; Em=534 nm) and mKate2 (Ex=575 nm; Em=630 nm) in 80 μl of FB-DMEM.

Tau/aggregate = Tau/aggregate inhibition in HEK 293 cells expressing mKate2-tagged Tau; assay type: cell-based, Human; conditions: for % Inhibition Tau/aggregate: @ 2 μM; for inhibition at 1 µM: Homo sapiens, HEK293
Method: (§2) 1) HEK cells with tet-regulated expression of mKate2 tagged Tau were grown in DMEM medium (Dulbecco's Modified Eagle's Medium) containing 0.5 μg/mL doxycycline (Dox)(MP-Bio#198955), after 3-5 days Dox was removed by washing the cells twice with sterile phosphate buffered saline (PBS; Invitrogen#14190-144), cells were left in DMEM without Dox for 72 hours (to further clear remaining Dox in cells).
as §1
(§3) Proteostat™ assay was used to detect aggresomes via measurement of p62. Aggresomes are inclusion bodies that form when the ubiquitin-proteasome machinery is overwhelmed with aggregation-prone proteins. Typically, an aggresome forms in response to some cellular stress, such as hyperthermia, viral infection, or exposure to reactive oxygen species. Aggresomes may provide a cytoprotective function by sequestering the toxic, aggregated proteins and may also facilitate their ultimate elimination from cells by autophagy. Following the final plate read described in the Cyto-ID™ assay described above, Proteostat™ detection reagent was added to every well and the plate was incubated for 15 minutes. Following this incubation, the plate was read by fluorescence plate reader at the specified wavelength. After this plate read, the cells were fixed by incubating with warm paraformaldehyde for 8 minutes. The fixed cells were then read by plate reader as before.
Western blot assays were performed to determine protein changes in Tau and p62. Cells were cultured as above and incubated with test compounds for 24 h. Following test compound incubation, the test compound was aspirated off and cells were washed before harvesting. Cells were spun at a low speed and supernatant was aspirated to leave the cell pellet. The cell pellet was then homogenized in buffer, centrifuged at high speed, and the supernatant aspirated and further separated into total fraction and aggregate fraction allowing quantification of soluble and insoluble proteins. Western blots were run on the samples, gels transferred to nitrocellulose and incubated with antibodies for Tau and p62. After incubation with secondary antibodies for detection, the bands of protein were quantified by chemiluminescence.

phospholipase D (PLD) = assay: PLD assay (conversion of phospholipids to phosphatidylethanols in presence of ethanol, LC/MS); assay type: cell-based, mice; parameters: key: NC—no change; conditions: PLD activation, fold; 24 hours incubation
Method: Cells were incubated with test compound for 24 hours. 25 minutes prior to harvest at 24 hours, 3% ethanol solution was added to the wells to catalyze cleavage of the phospholipid. Cells were then placed on ice, washed and harvested. The harvested cells were centrifuged and the supernatant was aspirated and the pellet kept. The pellet was resuspended and chloroform/methanol lipid extraction was performed. The sample was centrifuged and the organic layer was separated, dried under nitrogen and stored at −80° C. On the day of analysis, samples were resuspended and analysed by LC/MS. All phosphatidylethanol species (PEtOH32-40:0-6:16/18:0/1) were combined together and represented as total lipid content (all lipid species).
The assay was run in e18 primary cortical neurons from PLD1 or PLD2 KO mice cultured for 14 days. Alternatively, the assay can be run in the cells described above in the presence of excess PLD1 or PLD2 inhibitor to preclude that particular action from contributing to the effect of the drug.
4) On the day of experiment, cells were washed in warmed HBSS twice before media containing test compound (n=3 per compound per dose), inhibitor (355 nM ML298 or 50 nM VU0150669), or vehicle are added to the wells (1.5 mL in 6 well, 600 μL in 12 well). Plates were incubated for 24 hours at 37° C. with 5% CO2.
5) 25 minutes prior to harvest, a 165 μL of a 3% ethanol solution was added to each well.
PLD activation converts phospholipids to phosphatidylethanols in the presence of ethanol. […] FIPI is a non-competitive inhibitor of PLD activity and was used as a negative control.

[1] = Cytotoxicity LC50 (XTT assay for cell viability); assay type: cell-based; conditions: human, transfected HEK 293 cells that express mKate2-tagged Tau;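 also: cells carry doxycycline-repressible Tau, induced by withdrawing doxycycline for 72 h before compound exposure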
Method: The cells were grown in the presence of the antibiotic doxycycline. When the antibiotic is removed the cells produce Tau (which can be quantified), thus allowing the test compounds' effects on Tau's production to be compared. Doxycycline was removed for 72 hours prior to exposure to the test compounds to promote sufficient Tau production. Cells were subsequently plated into plates for each of the assays described below.

aggregates (Proteostat) = assay: Proteostat protein aggregation assay EC50; assay type: cell-based; conditions: Homo sapiens; 50% reduction of Proteostat levels (fluorescent marker of aggregates)
Excerpt: as §3
8) Detection solution was prepared by adding 10 μl Proteostat™ detection reagent (ENZ-51023-KP002) and 200 μL of 10× assay buffer into 1790 μL water and mixing well.
9) 20 μL was added per well (each well had 80 μl of Fluorobrite™ media with no FBS) and incubated in the dark for 15 min at room temperature.
10) Fluorescence for Proteostat™ (Ex=550 nm; Em=600 nm) was then read.

mKate2 tagged Tau = assay: Tau-mKate2 fluorescence EC50; assay type: cell-based; conditions: Homo sapiens; 50% reduction of mKate2 fluorescence (tau tag)
Method: as §2
as §1, with “After 3 hours test compound was aspirated off and kept.” left out, “The Hoescht measurement allowed normalisation of results across wells.” left out
5) Treatment plate was then washed quickly 3 times with warm FB-DMEM (100 μL/well). […] At this point, the plate was ready for reading. See details in Reading Plate section. Hoescht was read at Excitation wavelength (Ex)=355 nm & Emission wavelength (Em)=446 nm. mKate2 was read at Ex=575 nm & Em=630 nm. Cyto-ID™ was read at Ex=463 nm & Em=534 nm. […]

Compound	% Increase Autophagy Markers (Autophagy Markers; @ 2 μM)	% Inhibition Tau/aggregate (Tau/aggregate)	PLD (phospholipase D (PLD))	CC50 ([1]; read-out: Cyto-toxixity LC50) [µM]	% Increase Autophagy Markers (Autophagy Markers) [%]	inhibition at 1 µM (Tau/aggregate) [%]	EC50 (aggregates (Proteostat)) [nM]	CC50 ([1]; XTT assay, 200 = upper concentration limit tested, read-out: LC50 (the source's name)) [µM]	EC50 (mKate2 tagged Tau) [nM]
Cn1nnnc1Sc1ncnc2scnc12 [WHYKD1]	No Effect @ 2 μM	No Effect @ 2 μM	NC	> 100					
Oc1ccc(CCNc2ncnc3scnc23)cc1 [WHYKD2]	No Effect @ 2 μM	No Effect @ 2 μM		> 100					
Cn1nnnc1Sc1ncnc2ccc(Br)cc12 [WHYKD3]	No Effect @ 2 μM	No Effect @ 2 μM	NC	> 100					
Cn1nnnc1Sc1ncnc2ccc(-c3cccc4ccccc34)cc12 [WHYKD4]	No Effect @ 2 μM	No Effect @ 2 μM		> 100					
Cn1nnnc1Sc1ncnc2ccc(F)cc12 [WHYKD5]			1.7X	> 100	20	35			
Cn1nnnc1Sc1ncnc2ccccc12 [WHYKD6]	No Effect @ 2 μM	No Effect @ 2 μM		> 100					
Cn1nnnc1Sc1ncnc2ccc(Cl)cc12 [WHYKD7]	No Effect @ 2 μM	No Effect @ 2 μM		> 100					
Fc1ccc2ncnc(Cl)c2c1 [WHYKD9]	No Effect @ 2 μM	No Effect @ 2 μM		> 100					
Cn1nnnc1Sc1ccnc2ccccc12 [WHYKD10]	No Effect @ 2 μM	No Effect @ 2 μM		> 100					
Cn1nnnc1Sc1ccnc2ccc(F)cc12 [WHYKD11]	No Effect @ 2 μM	No Effect @ 2 μM		> 100					
Fc1ccc2ncnc(SC3CCCCC3)c2c1 [WHYKD12]			3.4 X	> 100	40	60			
CC1(Sc2ncnc3ccc(F)cc23)CCC2CC1C2(C)C (stereo not drawn) [WHYKD13]	No Effect @ 2 μM	No Effect @ 2 μM		> 100					
Fc1ccc2ncnc(SC34CC5CC(CC(C5)C3)C4)c2c1 [WHYKD14]	No Effect @ 2 μM	No Effect @ 2 μM		> 100					
Fc1ccc2ncnc(SC3CCCC3)c2c1 [WHYKD15]			3.6 X	> 100	40	65			
Fc1ccc2ncnc(SC3CC4CCC3C4)c2c1 (stereo not drawn) [WHYKD16]	No Effect @ 2 μM	No Effect @ 2 μM		> 100					
COC(=O)CC12CC3CC(C1)CC(Sc1ncnc4ccc(F)cc14)(C3)C2 [WHYKD18]	No Effect @ 2 μM	No Effect @ 2 μM		> 100					
Fc1ccc2ncnc(SC3CCOCC3)c2c1 [WHYKD19]			3.5 X	> 100	35	55			
Fc1ccc2ncnc(SC3Cc4ccccc4C3)c2c1 [WHYKD20]	No Effect @ 2 μM	No Effect @ 2 μM		> 100					
Oc1ccc(CCNc2ncnc3ncsc23)cc1 [WHYKD21]	No Effect @ 2 μM	No Effect @ 2 μM		> 100					
Oc1ccc(CCNc2ncnc3sccc23)cc1 [WHYKD22]	No Effect @ 2 μM	No Effect @ 2 μM		> 100					
Oc1ccc(CCNc2ncnc3ccsc23)cc1 [WHYKD23]	No Effect @ 2 μM	No Effect @ 2 μM		> 100					
O=c1[nH]cnc2ccc(F)cc12 [WHYKD24]				> 100	15	30			
Ic1ccc2ncnc(SC3CCCC3)c2c1 [WHYKD30]							2510	> 200	1110
